Laboratory results from EP2600854B1, “PHENETHYL, PHENETHYLENE, PHENETHYNE AND INDANONE DERIVATES IN COSMETIC FORMULATIONS, ESPECIALLY FOR USE IN SKIN AGEING PROCESSES” (Merck Patent GmbH, priority 2010, dated 2012).
Converted amounts (≈) assume the structure as drawn. Like-named read-outs stand apart in the source and are kept apart here.

Key:
[1] = In-situ generation of 4a from 1a under sun-simulated radiation (Suntester), HPLC analysis; assay type: physicochemical; settings: 5mg 1a in 10 mL Ethanol
Procedure: 5mg der Substanz 1 a werden in 10 mL Ethanol gelöst. Mit der Lösung wird ein NMR-Röhrchen vollständig befüllt, verschlossen und für 4 Stunden im Suntester sonnensimulierter Strahlung ausgesetzt (Atlas CPS+ Suntester, 765 Wm^-2). Nach Bestrahlung wird die Lösung per HPLC untersucht. Im Dunkelexperiment ist die Substanz 4a abwesend, während im Belichtungexperiment Substanz 4a zu 2% bei der Detektionswellenlänge von 272nm nachgewiesen wird.

[2] = Solubility comparison in the cosmetic oil isopropyl myristate; assay type: physicochemical; settings: for solubility: isopropyl myristate, organic solvent or mixture, Isopropylmyristat, read-out: Löslichkeiten
Procedure: Im Parallelversuch werden 20mg der Substanz 4a mit zunächst 800µL Isopropylmyristat versetzt. […] Daraus errechnen sich Löslichkeiten für 1 a von mindestens 2,5% bzw. für 4a von maximal 1,0% bezogen auf das eingesetzte Volumen Öl. Im anschließenden Verifizierungsexperiment bei Raumtemperatur von 23°C ergeben sich Löslichkeiten von 2,4% für 1 a sowie 0,4% für 4a.

[3] = 30°C, bezogen auf das eingesetzte Volumen Öl, calculated from 20mg in 800µL (1a) or 800µL + 1200µL (4a)
[4] = Verifizierungsexperiment bei Raumtemperatur von 23°C

Row | SMILES | Substanz 4a nachgewiesen (HPLC) im Belichtungexperiment ([1]; 4 Stunden sonnensimulierte Strahlung (Atlas CPS+ Suntester, 765 Wm^-2), Detektionswellenlänge 272nm) [%] | Substanz 4a (HPLC) im Dunkelexperiment ([1]; no irradiation) | Dissolution of 20mg in 800µL Isopropylmyristat ([2]; 20mg, 30°C) | solubility [2, 3] [mg/mL] | solubility [2, 4] [mg/mL] | Dissolution of 20mg after addition of further 1200µL Isopropylmyristat ([2]; 20mg, 800µL + 1200µL Isopropylmyristat)
1 | COc1ccc(C(=O)/C=C/c2ccc(C(C)(C)C)cc2)cc1 [1a, E-3-(4-tert.-Butyl-phenyl)-1-(4-methoxy-phenyl)-propenon] | 2 | abwesend | vollständig gelöst | ≥ 25 | 24 (≈ 81.5 mM) | 
2 | COc1ccc2c(c1)C(c1ccc(C(C)(C)C)cc1)CC2=O (stereo not drawn) [4a, 3-(4-tert.-Butyl-phenyl)-5-methoxy-indan-1-on] |  |  | keine vollständige Löslichkeit | ≤ 10 | 4 (≈ 13.6 mM) | deutlicher Bodensatz in der trüben Dispersion
